# Measurements reported in patent US20160022556A1, “1,5-ANHYDRO-D-GLUCITOL-CONTAINING COLLAGEN PRODUCTION ACCELERATOR” (NATIONAL UNIVERSITY CORPORATION UNIVERSITY OF TOYOMA, priority 2013, published 2016).
# What was measured:
# [1] = system: normal human fibroblasts; experiment: Type I collagen synthesis of normal human fibroblasts (ELISA of culture supernatant; protein by BCA method); assay type: cell-based; settings: for Type I Collagen, Mean S.D.: 24-hour culture, n = 6, untreated control 7.03 ± 0.25
# Protocol: The action of 1,5-AG on the synthesis of type I collagen of dermal fibroblasts is evaluated. Specifically, normal human fibroblasts were spread on a 96-well microplate using Dulbecco's modified eagle medium (DMEM) containing 0.5% fetal bovine serum (FBS). The fibroblasts were cultured at 37° C. for 24 hours, and thereafter the medium was exchanged with a 0.5% FBS-containing DMEM containing a given concentration of samples. As a positive control (P.C.), the same treatment was carried out with magnesium ascorbyl phosphate. After the 24-hour culture in the sample-containing medium, the culture supernatant was collected and subjected to ELISA. Also, the amount of protein was measured in accordance with bicinchoninic acid (BCA) method with PIERCE (manufactured by Pierce Biotechnology Inc.).
# The culture supernatant and the collagen solutions for calibration curve were each dispensed in each well of high-adsorbent ELISA plate, and allowed to coat at 4° C. over one day and night. Thereafter, the coated plate was blocked at 37° C. for 1 hour with a 1% bovine serum albumin (BSA) solution. The primary antibody reaction was carried out by diluting Anti-Human Collagen Type I antibody (manufactured by Bio-Rad Laboratories, Inc., Rabbit) with a 0.3% BSA solution, and the dilution was added to each well and allowed to react at 37° C. for 1 hour. The secondary antibody reaction was carried out by diluting Histofine MAX-PO® (manufactured by NICHIREI, Rabbit) with a phosphate buffer, and the dilution was added to each well, and allowed to react at 37° C. for 1 hour. Next, 0.3 mg/mL of phosphate-citrate buffer (0.1 M, pH 4.0) containing 2,2′-azinobis(3-ethylbenzothiazoline-6-sulfonic acid)diammonium salt (ABTS) and a 0.03% hydrogen peroxide was added to each well and allowed to react for 20 minutes, and the absorbance of the reaction mixture was measured at 405 nm with a microplate reader.
# The amount of the collagen in the culture supernatant was calculated from the calibration curve prepared from commercially available collagen. By dividing the amount of collagen in the medium by the amount of proteins in all the cells, the amount of collagen synthesized per unit protein amount was calculated. The amount of collagen synthesized at each concentration was subjected to a significance test using a Student-t test, and a difference with an untreated control was evaluated.
# [2] = system: skin surface of human; experiment: Moisturizing effect: water content of skin surface in short-term use test of human volunteers (SKICON200); assay type: in vivo; settings: for Water Content of Skin Surface, Mean (%) SD, relative value where the initial value was defined as 100%: 2.5 μL/cm^2, medial part of forearm, n = 4
# Protocol: The moisturizing effects of the 1,5-AG are evaluated by a short-term use test of human volunteers. Specifically, with 5 males of ages of 26 to 34 as test individuals, an aqueous solution of a sample listed in Table 2 in a given concentration was applied in an amount of 2.5 μL/cm^2 at a medial part of forearm, and the water content of the skin surface was measured in accordance with the following method.
# <Measurement of Water Content of Skin Surface>
# Each test individual washed his medial part of forearm with a given detergent, and was conditioned for 15 minutes in a thermohygrostat (room temperature: 22° C., humidity: 45%). Thereafter, an initial value of the water content of the skin surface was measured with SKICON200 (manufactured by I.B.S. Co., Ltd., corneometer). Next, each of the test samples and purified water were coated according to a coating method. Further, uncoated sites were set. Water contents were measured immediately after the sample coating, after 15 minutes, after 30 minutes, and after 45 minutes. The water content of the uncoated sites was measured matching the measurement time at the sample-coated sites. The change in the water contents of each site to be tested was expressed in a relative value where an initial value was defined as 100%. The difference in the water content of skin surface in each test individual before and after the use of test samples was subjected to a significance test according to a Student-t test. The data for test individuals of which water contents of skin surface of the uncoated sites increased with passage of time were discarded as abnormal values, and the results calculated using the measurement values of four individuals are shown in Table 2 and FIG. 2.
Molecule,"Type I Collagen, Mean S.D. ([1]; 313 μg/mL sample)","Type I Collagen, Mean S.D. ([1]; 625 μg/mL sample)","Type I Collagen, Mean S.D. ([1]; 1250 μg/mL sample)","amount of type I collagen synthesized in the normal human fibroblasts ([1]; versus untreated control, Student-t test)","Water Content of Skin Surface, Mean (%) SD, relative value where the initial value was defined as 100% ([2]; 2% aqueous solution, After 15 min)","Water Content of Skin Surface, Mean (%) SD, relative value where the initial value was defined as 100% ([2]; 2% aqueous solution, After 30 min)","Water Content of Skin Surface, Mean (%) SD, relative value where the initial value was defined as 100% ([2]; 2% aqueous solution, After 45 min)","Water Content of Skin Surface, Mean (%) SD, relative value where the initial value was defined as 100% ([2]; 2% aqueous solution, Immediately after Coating)","action on the water content of skin surface (moisturizing property) ([2]; test sample of 2% 1,5-AG, human volunteers)","Water Content of Skin Surface, Mean (%) SD, relative value where the initial value was defined as 100% ([2]; 1% aqueous solution, After 15 min)","Water Content of Skin Surface, Mean (%) SD, relative value where the initial value was defined as 100% ([2]; 1% aqueous solution, After 30 min)","Water Content of Skin Surface, Mean (%) SD, relative value where the initial value was defined as 100% ([2]; 1% aqueous solution, After 45 min)","Water Content of Skin Surface, Mean (%) SD, relative value where the initial value was defined as 100% ([2]; 1% aqueous solution, Immediately after Coating)"
"OC[C@H]1OC[C@H](O)[C@@H](O)[C@@H]1O [1,5-AG, 1,5-anhydro-D-glucitol]",7.81 ± 0.60 ng/μg protein,8.28 ± 0.50 ng/μg protein,8.31 ± 0.49 ng/μg protein,significantly increased,154.2 ± 12.3%,180.3 ± 36.2%,176.7 ± 15.8%,"2,535.4 ± 749.6%",action of increasing the water content of skin surface,–,–,–,–
Sodium Hyaluronate [reference compound],–,–,–,–,–,–,–,–,–,122.6 ± 15.7%,116.9 ± 23.7%,130.1 ± 10.3%,"3,101.8 ± 1,716.3%"
